This note sets out measurements from ChEMBL document CHEMBL1938285, “Novel inhibitors of Mycobacterium tuberculosis dTDP-6-deoxy-L-lyxo-4-hexulose reductase (RmlD) identified by virtual screening” (Bioorg Med Chem Lett, 2011).

A word on the IC50: it is the concentration needed to halve the response being measured. The MIC is the lowest concentration found to suppress growth.

Structures are written as SMILES. ≈ marks a conversion by molar mass, not a printed value. Calls of active or inactive are those of the source. The calls are words filed in the database; no cut-off is given here.

For one experiment, the target named is T1, dTDP-4-dehydrorhamnose reductase (Mycobacterium tuberculosis, UniProt P9WH09).
T1 sequence (P9WH09 whole entry): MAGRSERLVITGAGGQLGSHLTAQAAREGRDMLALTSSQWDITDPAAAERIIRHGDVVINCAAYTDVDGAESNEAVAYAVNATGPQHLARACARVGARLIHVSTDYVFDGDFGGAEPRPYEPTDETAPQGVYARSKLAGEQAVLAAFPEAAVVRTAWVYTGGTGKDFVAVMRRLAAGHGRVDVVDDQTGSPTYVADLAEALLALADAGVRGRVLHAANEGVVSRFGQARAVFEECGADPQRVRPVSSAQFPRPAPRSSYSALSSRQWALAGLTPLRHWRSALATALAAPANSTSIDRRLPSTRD
Nature of the experiment: Inhibition of Mycobacterium tuberculosis RmlD assessed as inhibition of dTDP-beta-6-deoxy-L-lyxo-4-hexulose to dTDP-beta-L-rhamnose conversion.
Details: not given
As to `O=C1C=CC=CC1=C1c2cc(O)c(O)cc2Oc2cc(O)c(O)cc21`, the IC50 was found to be 2100 nM.
For `Cc1c2cc(O)c(=O)cc-2oc2cc(O)c(O)cc12`, the half-inhibitory concentration (IC50) was 15000 nM.
For `O=c1cc2oc3cc(O)c(O)cc3c(-c3ccccc3)c-2cc1O`, the half-inhibitory concentration (IC50) came out at 900 nM.

The next experiment deals with T2, dTDP-4-dehydrorhamnose reductase (Mycobacterium tuberculosis) (UniProt P9WH09).
T2 sequence (whole entry): T1 sequence (P9WH09 whole entry)
Nature of the experiment: Inhibition of Mycobacterium tuberculosis RmlD assessed as inhibition of dTDP-beta-6-deoxy-L-lyxo-4-hexulose to dTDP-beta-L-rhamnose conversion at 10 ug/ml.
Details: not given
With `O=c1oc2c(cc1O)oc(=O)c1cc(O)c(O)c(O)c12`, the inhibition result was “inactive”.
For `O=c1ccc2c(-c3ccccc3O)c3ccc(O)cc3oc-2c1`, the inhibition result was “inactive”.
`CSc1ncc2ncn([C@@H]3O[C@H](CO)[C@@H](O)[C@H]3O)c2n1`: the inhibition result is “inactive”.
On the same count and under the same terms, the value for `Oc1ccc(-c2ccc3ccccc3c2)cc1` was “inactive”.
Still for that read-out and setting: the value for `O[C@@H]1[C@@H](OCc2ccccc2)OC[C@H](O)[C@@H]1O` was “inactive”; that for `COc1ccc(NC(=O)c2cc3ccc4c5ccccc5[nH]c4c3cc2O)cc1` was “inactive”; that for `Oc1cc(C(c2ccccc2)c2ccccc2)c2ccccc2c1O` was “inactive”.
The same measure, in the same setting: the value for `O=C(OCC(O)COC(=O)c1cccnc1)c1cccnc1` was “inactive”; that for `NC(=S)c1cn([C@@H]2O[C@H](CO)[C@@H](O)[C@H]2O)c2ncnc(N)c12` was “inactive”; that for `C[C@@H]1O[C@@H](Oc2c(-c3cc(O)c(O)c(O)c3)oc3cc(O)cc(O)c3c2=O)[C@H](O)[C@H](O)[C@H]1O` was “inactive”.
With `Cc1c(Cl)cccc1Nc1ncccc1C(=O)OCC(O)CO` (configuration not stated), the inhibition entry is “inactive”.
The same measure, in the same setting: with `CC(=O)Oc1c(C)c(OC(C)=O)c2c(c1C(C)=O)OC1CC(=O)C(C(C)=O)=C(O)C21C` (configuration not stated) the entry was “inactive”.
The same measure, in the same setting: the value for `Oc1ccc2c(O)c3ccccc3cc2c1O` was “inactive”; that for `NC(=O)CC[C@@H](C(=O)O)N1C(=O)c2ccc(O)cc2C1=O` was “inactive”.
In the case of `O=C1C(Cl)=C(Nc2ccc3c[nH]nc3c2)C(=O)c2ccccc21`, the inhibition result was “inactive”.
In the case of `CC(Cc1ccc(O)c(O)c1)C(C)Cc1ccc(O)c(O)c1` (configuration not stated), the inhibition entry was “inactive”.
Regarding `COc1ccccc1/C=C/C(=O)/C=C/c1ccccc1O`, the inhibition result is “inactive”.
Same read-out and setting: the value for `COc1cccc2c1[C@H](CO)N1[C@H](C#N)[C@@H]3C[C@H](C(=O)O)[C@@H]([C@@H]1C2)N3C` was “inactive”.
Same read-out and setting: with `Cc1cc(O)c2cc3c(O)c(O)ccc3cc2c1` the entry was “inactive”; with `COc1ccccc1NC(=O)c1cc2cc(Br)ccc2cc1O`, “inactive”.
Consider `COc1cc(C(=O)C(=O)c2cc(OC)c(O)c(OC)c2)cc(OC)c1O`, for which the inhibition entry was “inactive”.
With `N#Cc1cnn2ccn([C@@H]3O[C@H](CO)[C@@H](O)[C@H]3O)c12`, the inhibition result was “inactive”.
On the same count and under the same terms, with `O=C(/C=C/c1ccc(O)c(O)c1)O[C@@H]1C[C@@](OC(=O)/C=C/c2ccc(O)c(O)c2)(C(=O)O)C[C@@H](O)[C@@H]1O` the entry was “inactive”; with `O=C(c1ccc(O)cc1)c1ccc(C(=O)c2ccc(O)cc2)cc1`, “inactive”.
Same read-out and setting: with `O=C1CC(c2ccccc2)c2ccc(O)cc2O1` (configuration not stated) the entry was “inactive”.
The same measure, in the same setting: with `C=Cc1c(C)c(O)cc2c1-c1ccc(O)c(C)c1CC2` the entry was “inactive”; with `N=C(N)c1ccc(/C=C/c2ccc(C(=N)N)cc2O)cc1`, “inactive”; with `Cc1cc2c(cc1C)NC1=C(N2)OC(c2cccc(O)c2)C1=O` (configuration not stated), “inactive”.
With `Cc1ccc(NC(=O)Nc2cccnc2)cc1NC(=O)Nc1cccnc1`, the inhibition entry is “inactive”.
In the case of `CCC(CC)C(c1ccc(O)cc1)c1ccc(O)cc1`, the inhibition entry was “inactive”.
Same read-out and setting: the value for `CC(=O)OCc1cc(-c2nc3ccccc3nc2O)nn1-c1ccc(Cl)cc1` was “inactive”; that for `O=C1C=C(c2ccccc2)OC(=O)C1C(=O)c1ccccc1` (configuration not stated) was “inactive”; that for `O=C(O)/C=C/c1c2ccc(=O)c(O)c-2oc2c(O)c(O)ccc12` was “inactive”.
The same measure, in the same setting: with `O=C(/C=C/c1ccc2ccccc2n1)c1cc(Cl)ccc1O` the entry was “inactive”; with `Oc1ccc(C(c2ccc(O)cc2)c2ccc(O)cc2)cc1`, “inactive”; with `CCC(c1ccc(O)cc1)C(CC)c1ccc(O)c(O)c1` (configuration not stated), “inactive”.
Still for that read-out and setting: with `COc1cc(/N=N/c2c(O)nc3ccccc3c2O)c(OC)cc1/N=N/c1ccccc1` the entry was “inactive”.
Regarding `Oc1ccc(C(O)(c2ccccc2)c2ccc(O)c3ccccc23)c2ccccc12`, the inhibition result is “inactive”.
With `CCC(c1ccccc1)C(CC)c1cc(O)c(O)c(O)c1` (configuration not stated), the inhibition result was “inactive”.
The same measure, in the same setting: the value for `CC(c1cccc(O)c1)C(C)c1cccc(O)c1` (configuration not stated) was “inactive”; that for `COc1ccc(OC)c(NC(=O)c2cc3oc4ccccc4c3cc2O)c1` was “inactive”.
On the same count and under the same terms, with `Cn1c(=O)c2nc(CNc3ccc(C(=O)O)cc3)[nH]c2n(C)c1=O` the entry was “inactive”; with `Cc1cc(=O)oc2cc(O)c(O)cc12`, “inactive”.
On to `COc1cc(NC(=O)c2cc3ccccc3cc2O)c(OC)cc1Cl`, for which the inhibition result was “inactive”.
On to `CCC(c1ccccc1)C(CC)c1ccc(O)c(O)c1` (configuration not stated), for which the inhibition result is “inactive”.

The next experiment relates to Mycobacterium tuberculosis. Nature of the experiment: Antimycobacterial activity against Mycobacterium tuberculosis H37Rv after 7 days by microbroth dilution-resazurin assay. The experiment is classed as functional. The following applies: 168 h. (Dilution methods test growth across graded concentrations, often in twofold steps.)
The molecule `O=C1C=CC=CC1=C1c2cc(O)c(O)cc2Oc2cc(O)c(O)cc21` showed an MIC of 133 µg/mL (≈ 395 µM).
`Cc1c2cc(O)c(=O)cc-2oc2cc(O)c(O)cc12` had an MIC of 62 µg/mL (≈ 240 µM).
Still for that read-out and setting: with `O=c1cc2oc3cc(O)c(O)cc3c(-c3ccccc3)c-2cc1O` the figure was 200 µg/mL (≈ 624 µM); with `C=Cc1cc(O)cc2c1-c1ccc(O)c(C)c1CC2` [EFFUSOL], 20 µg/mL (≈ 79.3 µM).
